Values quoted from earlier work, collected in patent publication US20050008656A1, “Compositions and methods for an orally administered inhibitor of biting insects” (priority 2003, published 2005).

Columns and labels:
[1] = in vivo
biting insects = details: ingested
[2] = in vivo; remark: listed apart in the source

O=C(O)CCCC[C@@H]1SC[C@@H]2NC(=O)N[C@@H]21 [Biotin]
toxicity (in words) [1]: No toxic levels are known

CCN(CC)C(=O)c1cccc(C)c1 [DEET, N, N-diethyl-3-methylbenzamide, reference compound]
toxicity (in words) [1]: toxicity, including encephalopathy and seizures

O=C(O)c1cccnc1 [Nicotinic acid]
dose above which flushing by dilating the blood vessels occurs [1]: > 200 mg

CC1CCC(C(C)(C)O)C(O)C1 (stereo not shown) [PMD, p-menthane-3,8-diol, reference compound]
eye irritation [1]: significant eye irritation

C/C=C/C=C/C(=O)O [Sorbic acid]
toxicity (in words) [1]: non-toxic even when taken in large quantities

Cc1ncc(CO)c(CO)c1O [Vitamin B6, Pyridoxine]
dosage above which neurological damage may be caused [1]: > 2,000 mg per day

C[N+](C)(C)CCO [choline]
maximum level set for safety [1]: 3.5 g/day

O[C@H]1[C@H](O)[C@@H](O)[C@H](O)[C@@H](O)[C@H]1O [inositol]
toxicity (in words) [1]: No toxic effects known

Cc1ncc(C[n+]2csc(CCO)c2C)c(N)n1 [thiamine]
effectiveness at inhibiting insects from biting (biting insects): not effective

Cyanocobalamin [B12]
time needed to be absorbed [2]: ~3 h
